Patent US20230295088A1, “INSULIN SENSITIZERS FOR THE TREATMENT OF DIABETES MELLITUS” (University of Iowa Research Foundation, priority 2020, published 2023)
Entries after “also recorded” stand apart in the source; their conditions may differ.

How the values were obtained:
[1] = Solubility in aqueous solution; format: physicochemical; settings: compared with C3
Unc119b KO HBG4 cells = assay: 3H-Deoxy-D-Glucose uptake in Unc119b KO HBG4 cells; format: cell-based, mouse
Protocol: (§1) Unc119 and Unc119b are important for the insulin sensitizing effect of C59. After identifying Unc119 proteins as molecular targets for C59, it was tested whether those proteins were responsible for the insulin sensitizing activity of C59. To this end Unc119 and Unc119b KO HBG4 cells were generated using CRISPR/Cas9 technology. For each of those cell lines two gRNA surrounding the start codon were used, thus resulting in a deletion of a fragment of the Unc119 genes that includes the ATG. Deletion of Unc119 and Unc119b in clonal cell lines were screened and verified by PCR (FIG. 4E). The effect of C59 on insulin-stimulated. […] To further test this finding, 3H-Deoxy-D-Glucose uptake in WT, Unc119 KO and Unc119b KO HBG4 cells treated with vehicle, insulin, C59 alone and C59 with insulin was measured.

Unc119 = biological target: T1, Unc119 (Mus musculus, UniProt Q9Z2R6); assay: Proteome Integral Solubility Alteration (PISA) assay, Unc119; format: binding; set-up: dose or concentration left out as unconfirmed
T1 construct: endogenous in cells
Excerpt: Identification of the molecular target of C59. Since the discovery of C59 as an insulin sensitizer was achieved using a phenotypic screen, the molecular target of the compound was unknown. To identify the target, a Proteome Integral Solubility Alteration (PISA) assay was used. […] To measure the shift in thermal stability, constructs coding for Unc119-HiBiT and Unc119b-HiBit were generated, thus allowing the quantitative detection of those proteins by adding LgBiT and furimazin to the lysates and measuring luminescence. Crude extract from cells transfected with Unc119-HiBiT or Unc119b-HiBiT, were incubated with DMSO or C59 for 10 minutes, aliquoted, heated for 3 minutes at the indicated temperature and allowed to cool down to room temperature before adding LgBiT and furimazin and reading luminescence on a plate reader.

WT HBG4 cells = assay: 3H-Deoxy-D-Glucose uptake in WT HBG4 cells; format: cell-based, mouse
Protocol: as §1

[2] = system: diet-induced obese (DIO) mice; assay: Glucose tolerance, fasting glucose and insulin in diet-induced obese (DIO) insulin-resistant mice; format: in vivo, mouse; settings: DIO mice, C59 treatment
Protocol: To test whether C3 improves glucose handling, WT mice were made insulin-resistant by feeding them a high fat diet (HFD) for a period of 10 weeks. After 10 weeks, mice were injected with vehicle. C3 (20 mg/kg), or the TZD rosiglitazone (20 mg/kg) for 2 weeks while remaining on the HFD. […] To further test the in vivo efficacy of C3, a glucose tolerance test (GTT) was perfromed.
To test whether C3 improves glucose handling, lean mice were injected with vehicle or C3 30 minutes before performing a glucose tolerance test. […] To further determine if C3 can reverse glucose intolerance, WT mice were made insulin-resistant by feeding them a high fat diet (HFD) for a period of 10 weeks. Diet induced obese (DIO) mice were then injected with vehicle or C3 for 2 weeks while remaining on HFD.

Unc119 KO HBG4 cells [3] = assay: Insulin-stimulated GLUT4 translocation in Unc119 KO HBG4 cells; format: cell-based, mouse
Protocol: as §1

[4] = system: GLUT4 translocation in C2C12 myoblast cell line stably expressing HiBiT-GLUT4 (HBG4); assay: HiBiT (NanoBit) luminescence GLUT4 translocation assay in HBG4 C2C12 cells; format: cell-based, mouse
Excerpt: An assay was used to identify potentiators of insulin-stimulated GLUT4 translocation. In one embodiment, the assay employs Nanobit technology. This technology is based on the recombination of two complementary fragments, HiBiT and LgBiT, of the Nanoluc luciferase. HiBit was fused to an extracellular region of GLUT4 to allow for the rapid quantitation of its the surface density in live cells by adding the reconibinantly produced complementary fragment LgBiT and the luciferase substrate. Since LgBiT is not membrane permeant, only proteins at the plasma membrane are quantified. To measure GLUT4 translocation, a stable C2C12 myoblast cell line was prepared by expressing a HiBiT-tagged mouse GLUT4. […] The Chembridge Diverset library of 49,600 compounds was screened and 1264 hits were identified. A subset of those hits were selected and retested in the presence and absence of insulin.
Development of a HTS assay for real-time measurement of GLUT4 translocation. To measure GLUT4 translocation in a homogenous and HIS amenable manner, NanoBit technology was used. This technology relies on the rapid recombination of 2 fragments of the Nanoluc luciferase (HiBit and LgBiT) with high affinity for each other. Fragments have no enzymatic activity on their own but generate a bright luminescent signal when recombined. A C2C12 myoblast cell line was prepared that stably expressed HiBiT-GLUT4 (HBG4), in which the small 11 amino acid HiBiT fragment was inserted into the first extracellular loop of GLUT4. A C-terminal mCherry was also added for microscopic detection. The C2C12 line was chosen as an in vitro model because it is derived from skeletal myoblasts and translocate GLUT4 in response to insulin. Detection of plasma membrane density of HBG4 is achieved by adding recombinant LgBit and substrate to live cells. The assay can be conducted as an endpoint where cells are incubated with insulin before measuring luminescence or as a kinetic assay by adding LgBiT and substrate at the beginning of the experiment and monitor real-time insulin-stimulated GLUT4 translocation.
An assay to measure GLUT4 translocation in a homogenous and HIS amenable manner using NanoBit technology was developed. This technology relies on the rapid recombination of 2 fragments of the Nanoiuc luciferase (HiBit and LgBiT) with high affinity for each other. Fragments have no enzymatic activity on their own but generate a bright luminescent signal when recombined. A C2C12 myoblast cell line stably expressing HiBiT-GLUT4 (HBG4), in which the small 11 amino acid HiBiT fragment was inserted into the first extracellular loop of GLUT4 was prepared. A C-terminal mCherry was also added for microscopic detection (FIGS. 1A and B). The C2C12 line was chosen as an in-vitro model because it is derived from skeletal myoblasts and translocates GLUT4 in response to insulin. Detection of plasma membrane density of HBG4 is achieved by adding recombinant LgBit and substrate to live cells (FIG. 1C). The assay can be conducted as a kinetic assay by adding LgBiT and substrate at the beginning of the experiment and monitoring real-time insulin-stimulated GLUT4 translocation (FIGS. 1D and E).

Unc119 KO HBG4 cells [5] = assay: 3H-Deoxy-D-Glucose uptake in Unc119 KO HBG4 cells; format: cell-based, mouse
Protocol: as §1

- solubility in aqueous solution [1]: improved solubility
- thermostability of Unc119 (PISA) (Unc119; lysates (crude extract)): increased the thermostability
- EC50 ([4]; Mus musculus, HBG4 C2C12 cells, with insulin, read-out: potency (enhancement of insulin effect on GLUT4 translocation)): 2500 nM
Structure (SMILES): O=C(Nc1ccc(Cl)c(Cl)c1)C12CC3CC(CC(C3)C1)C2 [Compound C59]
- 3H-Deoxy-D-Glucose uptake, compound alone (Unc119b KO HBG4 cells; no insulin): did not stimulate
- insulin stimulated 3H-Deoxy-D-Glucose uptake (Unc119b KO HBG4 cells; with insulin): failed to do so
- thermostability of Unc119 (PISA) (Unc119; live cells, vs DMSO and C29): increased the thermostability; also recorded: concentration dependent increased thermostability
- 3H-Deoxy-D-Glucose uptake, compound alone (WT HBG4 cells; no insulin): did not stimulate
- insulin stimulated 3H-Deoxy-D-Glucose uptake (WT HBG4 cells; with insulin): significantly increased
- glucose handling in DIO mice [2]: drastically improves
- insulin-stimulated GLUT4 translocation (Unc119 KO HBG4 cells [3]): failed to enhance
- efficacy compared with C3 ([4]; enhancement of insulin effect on GLUT4 translocation): higher; also recorded: improved efficacy
- insulin-stimulated GLUT4 translocation ([4]; in the presence of insulin, WT HBG4 C2C12 cells): enhanced; also recorded: retained activity; also recorded: increased
- 3H-Deoxy-D-Glucose uptake, compound alone (Unc119 KO HBG4 cells [5]; no insulin): did not stimulate
- insulin stimulated 3H-Deoxy-D-Glucose uptake (Unc119 KO HBG4 cells [5]; with insulin): failed to do so
